Experiments:
[1] = Compound induced cellular toxicity in HepG2 cells (ATPlite); type: cell-based; settings: human, three days, ATPlite 1 Step, concentration reducing total ATP levels by 50% relative to no drug controls
Protocol: At day 3, post seeding cells are treated with ATPlite 1 Step according to the manufacturer's instructions.

2.2.15 cells = assay: Antiviral activity in 2.2.15 cells: reduction of viral product accumulation (qPCR, HBsAg/HBeAg ELISA); type: cell-based, HBV; settings: Hepatitis B virus, 120 h, day 5 post treatment, concentration reducing viral product accumulation in cell lysates or supernatants by 50% relative to no drug controls
Summary of the method: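 HBV-producing 2.2.15 cells, 35,000/well, treated with 5-fold serial compound dilutions at 0.5% final DMSO for 5 days. Lysate HBV DNA by qPCR or supernatant HBsAg/HBeAg by ELISA; EC50 is 50% reduction versus no-drug control, binned A<0.1 μM, B 0.1-1 μM, C>1 μM.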

| Compound | CC50 at 3 days [1] [µM] | EC50 (2.2.15 cells) [µM] |
| --- | --- | --- |
| CC(C)[C@@H]1Cc2c(oc3c(N4CCC(F)(F)C4)cccc23)-c2cc(=O)c(C(=O)O)cn21 [Example 71] | < 10 | < 0.1 |
| CC(C)[C@@H]1Cc2c(oc3cc(-n4cccn4)ccc23)-c2cc(=O)c(C(=O)O)cn21 [Example 72, (S)-6-isopropyl-2-oxo-10-(1H-pyrazol-1-yl)-6,7-dihydro-2H-benzofuro[2,3-a]quinolizine-3-carboxylic acid] | < 10 | < 0.1 |
| Cc1ccc2c3c(oc2c1)-c1cc(=O)c(C(=O)O)cn1[C@H](C(C)C)C3 [Example 73, (S)-6-isopropyl-10-methyl-2-oxo-6,7-dihydro-2H-benzofuro[2,3-a]quinolizine-3-carboxylic acid] | > 25 | < 0.1 |
| CC(C)[C@@H]1Cc2c(oc3cc(C4CC4)ccc23)-c2cc(=O)c(C(=O)O)cn21 [Example 74, (S)-10-cyclopropyl-6-isopropyl-2-oxo-6,7-dihydro-2H-benzofuro[2,3-a]quinolizine-3-carboxylic acid] | 10 to 25 | < 0.1 |
| CC(C)[C@@H]1Cc2c(oc3cc(-c4ccsc4)ccc23)-c2cc(=O)c(C(=O)O)cn21 [Example 76, (S)-6-isopropyl-2-oxo-10-(thiophen-3-yl)-6,7-dihydro-2H-benzofuro[2,3-a]quinolizine-3-carboxylic acid] | > 25 | < 0.1 |
| CC(C)[C@@H]1Cc2c(oc3c(OC(F)F)cccc23)-c2cc(=O)c(C(=O)O)cn21 [Example 77, (S)-11-(difluoromethoxy)-6-isopropyl-2-oxo-6,7-dihydro-2H-benzofuro[2,3-a]quinolizine-3-carboxylic acid] | > 25 | < 0.1 |
| CC(C)[C@@H]1Cc2c(oc3c(C#N)cccc23)-c2cc(=O)c(C(=O)O)cn21 [Example 78, (S)-11-cyano-6-isopropyl-2-oxo-6,7-dihydro-2H-benzofuro[2,3-a]quinolizine-3-carboxylic acid] | > 25 | < 0.1 |
| CC(C)[C@@H]1Cc2c(oc3c(-c4cccs4)cccc23)-c2cc(=O)c(C(=O)O)cn21 [Example 79, (S)-6-isopropyl-2-oxo-11-(thiophen-2-yl)-6,7-dihydro-2H-benzofuro[2,3-a]quinolizine-3-carboxylic acid] | < 10 | < 0.1 |
| CC(C)[C@@H]1Cc2c(oc3c(-c4ccsc4)cccc23)-c2cc(=O)c(C(=O)O)cn21 [Example 80, (S)-6-isopropyl-2-oxo-11-(thiophen-3-yl)-6,7-dihydro-2H-benzofuro[2,3-a]quinolizine-3-carboxylic acid] | < 10 | < 0.1 |
| CC(C)[C@@H]1Cc2c(oc3c(-n4cccn4)cccc23)-c2cc(=O)c(C(=O)O)cn21 [Example 81, (S)-6-isopropyl-2-oxo-11-(1H-pyrazol-1-yl)-6,7-dihydro-2H-benzofuro[2,3-a]quinolizine-3-carboxylic acid] | > 25 | < 0.1 |
| Cc1cccc2c3c(oc12)-c1cc(=O)c(C(=O)O)cn1[C@H](C(C)C)C3 [Example 82, (S)-6-isopropyl-11-methyl-2-oxo-6,7-dihydro-2H-benzofuro[2,3-a]quinolizine-3-carboxylic acid] | > 25 | < 0.1 |
| CC(C)[C@@H]1Cc2c(oc3c(C4CC4)cccc23)-c2cc(=O)c(C(=O)O)cn21 [Example 83, (S)-11-cyclopropyl-6-isopropyl-2-oxo-6,7-dihydro-2H-benzofuro[2,3-a]quinolizine-3-carboxylic acid] | < 10 | < 0.1 |
| CC(C)[C@@H]1Cc2c(oc3c(-c4cnco4)cccc23)-c2cc(=O)c(C(=O)O)cn21 [Example 84, (S)-6-isopropyl-11-(oxazol-5-yl)-2-oxo-6,7-dihydro-2H-benzofuro[2,3-a]quinolizine-3-carboxylic acid] | > 25 | < 0.1 |
